In US6420131B1, “Use of fluorescein aryl ethers in high throughput cytochrome P450 inhibition assays” (Gentest Corporation, priority 1999, dated 2002):

Experiments:
Rat CYP1A1 = biological target: T1, Rat CYP1A1 (Rattus norvegicus, UniProt P00185); assay: Turnover of fluorometric substrates by rat CYP1A1; details: substrate uM: Ia 2, AMMC 20, CEC 40, MFC 50, BFC 50, BQ 40, BzRes 50; 30 min; enzyme 50 nM (2.5 nM for CEC)
T1 sequence (P00185 1-524): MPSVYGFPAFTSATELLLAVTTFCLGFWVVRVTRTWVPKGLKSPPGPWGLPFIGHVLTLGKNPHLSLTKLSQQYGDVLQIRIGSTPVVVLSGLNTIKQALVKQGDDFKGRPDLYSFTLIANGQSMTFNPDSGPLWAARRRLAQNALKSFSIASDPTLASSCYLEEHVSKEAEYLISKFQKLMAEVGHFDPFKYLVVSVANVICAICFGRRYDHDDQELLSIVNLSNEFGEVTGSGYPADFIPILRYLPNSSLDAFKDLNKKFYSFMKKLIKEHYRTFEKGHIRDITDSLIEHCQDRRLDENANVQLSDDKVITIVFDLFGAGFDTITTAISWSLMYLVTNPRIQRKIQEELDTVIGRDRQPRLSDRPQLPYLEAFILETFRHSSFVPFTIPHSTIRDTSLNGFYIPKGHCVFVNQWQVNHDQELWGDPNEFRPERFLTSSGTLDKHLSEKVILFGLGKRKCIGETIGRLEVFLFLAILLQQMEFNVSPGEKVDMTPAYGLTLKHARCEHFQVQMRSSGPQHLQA

Rat CYP2D2 = biological target: T2, Rat CYP2D2 (Rattus norvegicus, UniProt P10634); assay: Turnover of fluorometric substrates by rat CYP2D2; details: substrate uM: Ia 2, AMMC 20, CEC 40, MFC 50, BFC 50, BQ 40, BzRes 50; 30 min; enzyme 50 nM
T2 sequence (P10634 1-500): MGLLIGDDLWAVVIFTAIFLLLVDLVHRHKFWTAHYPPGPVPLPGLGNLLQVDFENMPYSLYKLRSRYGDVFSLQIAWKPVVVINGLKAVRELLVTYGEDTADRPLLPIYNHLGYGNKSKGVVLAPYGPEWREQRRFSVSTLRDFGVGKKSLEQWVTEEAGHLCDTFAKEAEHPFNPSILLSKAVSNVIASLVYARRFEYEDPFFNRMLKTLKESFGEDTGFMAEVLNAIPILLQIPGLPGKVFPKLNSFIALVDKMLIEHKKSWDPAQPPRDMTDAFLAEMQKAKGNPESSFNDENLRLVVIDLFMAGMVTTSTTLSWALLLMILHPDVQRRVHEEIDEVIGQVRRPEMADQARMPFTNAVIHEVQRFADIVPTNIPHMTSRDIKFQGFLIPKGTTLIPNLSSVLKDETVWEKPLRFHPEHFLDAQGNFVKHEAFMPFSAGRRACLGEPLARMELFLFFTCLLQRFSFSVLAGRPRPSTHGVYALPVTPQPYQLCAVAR

Rat CYP2C6 = biological target: T3, Rat CYP2C6 (Rattus norvegicus, UniProt P05178); assay: Turnover of fluorometric substrates by rat CYP2C6; details: substrate uM: Ia 2, AMMC 20, CEC 40, MFC 50, BFC 50, BQ 40, BzRes 50; 30 min; enzyme 50 nM
T3 sequence (P05178 1-490): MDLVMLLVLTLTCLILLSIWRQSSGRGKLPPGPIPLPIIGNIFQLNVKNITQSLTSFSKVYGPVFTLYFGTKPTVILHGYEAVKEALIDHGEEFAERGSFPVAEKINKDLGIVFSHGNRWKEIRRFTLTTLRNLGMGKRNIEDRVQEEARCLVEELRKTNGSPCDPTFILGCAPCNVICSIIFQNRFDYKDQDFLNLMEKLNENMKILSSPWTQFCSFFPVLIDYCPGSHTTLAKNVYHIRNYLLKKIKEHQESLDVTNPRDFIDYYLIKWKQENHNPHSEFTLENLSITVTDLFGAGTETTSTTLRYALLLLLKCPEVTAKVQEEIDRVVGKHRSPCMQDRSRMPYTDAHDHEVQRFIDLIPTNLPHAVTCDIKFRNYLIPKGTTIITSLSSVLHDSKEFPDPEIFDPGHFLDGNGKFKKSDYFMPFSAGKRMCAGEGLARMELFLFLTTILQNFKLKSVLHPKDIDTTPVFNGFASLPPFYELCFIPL

Rat CYP2C11 = biological target: T4, Rat CYP2C11 (Rattus norvegicus, UniProt P08683); assay: Turnover of fluorometric substrates by rat CYP2C11; details: substrate uM: Ia 2, AMMC 20, CEC 40, MFC 50, BFC 50, BQ 40, BzRes 50; 30 min; enzyme 50 nM
T4 sequence (P08683 1-500): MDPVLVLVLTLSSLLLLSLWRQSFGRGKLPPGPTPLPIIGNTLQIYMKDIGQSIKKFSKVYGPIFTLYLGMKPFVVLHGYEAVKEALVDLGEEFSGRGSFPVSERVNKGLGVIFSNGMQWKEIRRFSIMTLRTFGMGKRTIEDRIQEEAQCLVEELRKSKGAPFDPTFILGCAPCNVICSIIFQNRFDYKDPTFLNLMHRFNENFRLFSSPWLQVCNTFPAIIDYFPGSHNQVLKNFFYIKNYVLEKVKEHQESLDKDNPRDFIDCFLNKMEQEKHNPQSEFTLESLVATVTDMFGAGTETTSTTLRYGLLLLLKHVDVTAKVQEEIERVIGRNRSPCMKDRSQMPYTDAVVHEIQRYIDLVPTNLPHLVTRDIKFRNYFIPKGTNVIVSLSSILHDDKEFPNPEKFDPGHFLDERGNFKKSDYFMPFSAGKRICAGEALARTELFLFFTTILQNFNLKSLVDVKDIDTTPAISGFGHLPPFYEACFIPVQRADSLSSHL

Rat CYP3A1 = biological target: T5, Rat CYP3A1 (Rattus norvegicus, UniProt P04800); assay: Turnover of fluorometric substrates by rat CYP3A1; details: substrate uM: Ia 2, AMMC 20, CEC 40, MFC 50, BFC 50, BQ 40, BzRes 50; 30 min; enzyme 50 nM
T5 sequence (P04800 1-504): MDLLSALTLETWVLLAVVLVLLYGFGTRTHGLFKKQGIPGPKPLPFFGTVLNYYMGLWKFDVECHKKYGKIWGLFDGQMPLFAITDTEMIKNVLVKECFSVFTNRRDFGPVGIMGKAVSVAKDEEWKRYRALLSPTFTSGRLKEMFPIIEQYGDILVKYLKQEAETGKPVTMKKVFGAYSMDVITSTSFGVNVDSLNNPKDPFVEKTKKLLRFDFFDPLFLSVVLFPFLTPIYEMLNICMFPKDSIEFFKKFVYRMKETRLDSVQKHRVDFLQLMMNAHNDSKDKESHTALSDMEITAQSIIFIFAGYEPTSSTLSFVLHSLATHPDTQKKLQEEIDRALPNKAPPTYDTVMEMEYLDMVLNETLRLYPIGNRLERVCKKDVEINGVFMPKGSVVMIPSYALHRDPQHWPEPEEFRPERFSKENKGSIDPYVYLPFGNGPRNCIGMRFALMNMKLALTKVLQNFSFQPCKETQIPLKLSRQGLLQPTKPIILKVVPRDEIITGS

`COc1ccc2c(C(F)(F)F)cc(=O)oc2c1` [MFC, 7-Methoxy-4-trifluoromethylcoumarin] was tested, and the “Turnover Numbers, CYP1A1” value (Rat CYP1A1) was 1.03 pmol product/min/pmol enzyme, the “Turnover Numbers, CYP2D2” value (Rat CYP2D2) was 0.08 pmol product/min/pmol enzyme and the “Turnover Numbers, CYP2C6” value (Rat CYP2C6) was 11.5 pmol product/min/pmol enzyme. The “Turnover Numbers, CYP2C11” value (Rat CYP2C11) was 5.57 pmol product/min/pmol enzyme.
`O=C(OCc1ccccc1)c1ccccc1-c1c2ccc(=O)cc-2oc2cc(OCc3ccccc3)ccc12` [Compound Ia, O-Benzylfluorescein Benzyl Ester] was tested, and the “Turnover Numbers, CYP1A1” value (Rat CYP1A1) was 0.211 pmol product/min/pmol enzyme, the “Turnover Numbers, CYP3A1” value (Rat CYP3A1) was 0.027 pmol product/min/pmol enzyme and the “Turnover Numbers, CYP2D2” value (Rat CYP2D2) was 0.194 pmol product/min/pmol enzyme. The “Turnover Numbers, CYP2C6” value (Rat CYP2C6) was 0.021 pmol product/min/pmol enzyme and the “Turnover Numbers, CYP2C11” value (Rat CYP2C11) was 0.065 pmol product/min/pmol enzyme.
For `CCOc1ccc2cc(C#N)c(=O)oc2c1` [CEC, 7-Ethoxy-3-cyanocoumarin], the “Turnover Numbers, CYP1A1” value (Rat CYP1A1) was 78 pmol product/min/pmol enzyme, the “Turnover Numbers, CYP3A1” value (Rat CYP3A1) was 0.08 pmol product/min/pmol enzyme and the “Turnover Numbers, CYP2C6” value (Rat CYP2C6) was 2.14 pmol product/min/pmol enzyme. The “Turnover Numbers, CYP2C11” value (Rat CYP2C11) was 0.55 pmol product/min/pmol enzyme.
`O=c1cc(C(F)(F)F)c2ccc(OCc3ccccc3)cc2o1` [BFC, 7-Benzyloxy-4-trifluoromethylcoumarin] was tested, and the “Turnover Numbers, CYP1A1” value (Rat CYP1A1) was 0.34 pmol product/min/pmol enzyme, the “Turnover Numbers, CYP3A1” value (Rat CYP3A1) was 1.33 pmol product/min/pmol enzyme and the “Turnover Numbers, CYP2D2” value (Rat CYP2D2) was 0.12 pmol product/min/pmol enzyme. The “Turnover Numbers, CYP2C6” value (Rat CYP2C6) was 2.62 pmol product/min/pmol enzyme and the “Turnover Numbers, CYP2C11” value (Rat CYP2C11) was 0.34 pmol product/min/pmol enzyme.
For `c1ccc(COc2ccc3cccnc3c2)cc1` [BQ, 7-Benzyloxyquinoline], the “Turnover Numbers, CYP1A1” value (Rat CYP1A1) was 5.7 pmol product/min/pmol enzyme, the “Turnover Numbers, CYP3A1” value (Rat CYP3A1) was 8.4 pmol product/min/pmol enzyme and the “Turnover Numbers, CYP2D2” value (Rat CYP2D2) was 4.4 pmol product/min/pmol enzyme. The “Turnover Numbers, CYP2C6” value (Rat CYP2C6) was 1.9 pmol product/min/pmol enzyme.
For `O=c1ccc2nc3ccc(OCc4ccccc4)cc3oc-2c1` [BzRes, 7-benzyloxyresorufin], the “Turnover Numbers, CYP1A1” value (Rat CYP1A1) was 1.35 pmol product/min/pmol enzyme, the “Turnover Numbers, CYP3A1” value (Rat CYP3A1) was 0.06 pmol product/min/pmol enzyme and the “Turnover Numbers, CYP2C6” value (Rat CYP2C6) was 0.02 pmol product/min/pmol enzyme. The “Turnover Numbers, CYP2C11” value (Rat CYP2C11) was 0.05 pmol product/min/pmol enzyme.
